According to patent EP1547597A2, “Use of adatanserin for the treatment of neurodegenerative conditions” (Wyeth, priority 1999, dated 2001):

Test system: rat hippocampal slices
Experiment: Reduction of azide-induced ischemic efflux of glutamate in rat hippocampal slices
Type: cell-based
Conditions: versus control, statistically significant, read-out: reduction of glutamate release (azide-induced ischemic efflux of glutamate)
Procedure: Adatanserin was evaluated for its ability to reduce the azide-induced ischemic efflux of glutamate in rat hippocampal slices. Three Krebs buffers were used in the experiments. Normal Krebs buffer consisted of a solution containing the following: (122 mM NaCl, 3 mM KCl, 24 mM NaHCO3, 10 mM glucose, 0.315 mM K2HPO4, 1.2 mM MgSO4, 4 mM CaCl2). Aglycemic Krebs buffer was similar to the normal buffer with the exception that glucose was not added. Ischemic Krebs buffer was the aglycemic solution which contained varying concentrations of sodium azide (0 - 30 mM).
Rat hippocampi were dissected on a cold platform and suspended in ice cold oxygenated normal Krebs buffer. The tissue was cross-chopped at 350 microns on a Mcllwain tissue chopper, then resuspended and washed three times with ice cold normal Krebs buffer. […] Amino acid concentrations were analyzed with reverse phase HPLC on a catacholamine column (Keystone Scinetific, 150 x 3 mm) employing an 0.05 M acetate/methanol gradient. […] Amino acids were visualized by derivatization with naphthalene-2,3-dicarboxaldehyde and fluorimetric detection (Dawson, L. A. et al., Improved Temporal Resolution of Microdialysis Measurement of Glutamate and Aspartate Using Capillary Electrophoresis with Laser Induced Fluorescence Detection. J. Chromatogr. B 1997, 694, 1204-1212). […]

Molecule O=C(NCCN1CCN(c2ncccn2)CC1)C12CC3CC(CC(C3)C1)C2 [adatanserin, N-[2-[4-(2-pyrimidinyl)-1-piperazinyl]ethyl]tricyclo[3.3.1.13,7]decane-1-carboxamide] has an inhibition at 0.1 µM (adatanserin 100 nM) of 72% and an inhibition at 1 µM (adatanserin 1000 nM (1 µM)) of 71%.
